Data reported in ChEMBL document CHEMBL4507297, “Data for DCP probe PF-04457845” (2021).

What was measured:
[1] = target: Serine/threonine-protein kinase RIO3 (Homo sapiens) (UniProt O14730); conditions: Compound concentration 1000.0 nM
[2] = target: Dual specificity protein kinase CLK4 (Homo sapiens) (UniProt Q9HAZ1); conditions: Compound concentration 1000.0 nM
[3] = target: Serine/threonine-protein kinase 33 (Homo sapiens) (UniProt Q9BYT3); conditions: Compound concentration 1000.0 nM
[4] = target: Ephrin type-A receptor 4 (Homo sapiens) (UniProt P54764); conditions: Compound concentration 1000.0 nM
[5] = target: Platelet-derived growth factor receptor alpha (Homo sapiens) (UniProt P16234); conditions: Compound concentration 1000.0 nM
[6] = target: Tyrosine-protein kinase Fer (Homo sapiens) (UniProt P16591); conditions: Compound concentration 1000.0 nM
[7] = target: Peripheral plasma membrane protein CASK (Homo sapiens) (UniProt O14936); conditions: Compound concentration 1000.0 nM
[8] = target: Interleukin-1 receptor-associated kinase 3 (Homo sapiens) (UniProt Q9Y616); conditions: Compound concentration 1000.0 nM
[9] = target: Dual specificity testis-specific protein kinase 1 (Homo sapiens) (UniProt Q15569); conditions: Compound concentration 1000.0 nM
[10] = target: D(3) dopamine receptor (Homo sapiens) (UniProt P35462); conditions: Compound concentration 10.0 uM
[11] = target: Cyclin-dependent kinase 19 (Homo sapiens) (UniProt Q9BWU1); conditions: Compound concentration 1000.0 nM
[12] = target: LIM domain kinase 1 (Homo sapiens) (UniProt P53667); conditions: Compound concentration 1000.0 nM
[13] = target: Mitogen-activated protein kinase kinase kinase 2 (Homo sapiens) (UniProt Q9Y2U5); conditions: Compound concentration 1000.0 nM
[14] = target: Serine/threonine-protein kinase 25 (Homo sapiens) (UniProt O00506); conditions: Compound concentration 1000.0 nM
[15] = target: Mitogen-activated protein kinase 8 (Homo sapiens) (UniProt P45983); conditions: Compound concentration 1000.0 nM
[16] = target: Ephrin type-B receptor 2 (Homo sapiens) (UniProt P29323); conditions: Compound concentration 1000.0 nM
[17] = target: Phosphorylase b kinase regulatory subunit alpha, liver isoform (Homo sapiens) (UniProt P46019); conditions: Compound concentration 1000.0 nM
[18] = target: SRSF protein kinase 3 (Homo sapiens) (UniProt Q9UPE1); conditions: Compound concentration 1000.0 nM
[19] = tested on: Receptor-type tyrosine-protein kinase FLT3 (Homo sapiens), P36888 [UNDEFINED MUTATION]; conditions: Compound concentration 1000.0 nM
[20] = target: Serine/threonine-protein kinase Sgk3 (Homo sapiens) (UniProt Q96BR1); conditions: Compound concentration 1000.0 nM
[21] = target: Citron Rho-interacting kinase (Homo sapiens) (UniProt O14578); conditions: Compound concentration 1000.0 nM
[22] = target: Serine/threonine-protein kinase 16 (Homo sapiens) (UniProt O75716); conditions: Compound concentration 1000.0 nM
[23] = target: 5'-AMP-activated protein kinase catalytic subunit alpha-1 (Homo sapiens) (UniProt Q13131); conditions: Compound concentration 1000.0 nM
[24] = target: Serine/threonine-protein kinase SBK1 (Homo sapiens) (UniProt Q52WX2); conditions: Compound concentration 1000.0 nM
[25] = target: Homeodomain-interacting protein kinase 1 (Homo sapiens) (UniProt Q86Z02); conditions: Compound concentration 1000.0 nM
[26] = target: Dual specificity mitogen-activated protein kinase kinase 1 (Homo sapiens) (UniProt Q02750); conditions: Compound concentration 1000.0 nM
[27] = target: Calcium/calmodulin-dependent protein kinase kinase 2 (Homo sapiens) (UniProt Q96RR4); conditions: Compound concentration 1000.0 nM
[28] = target: Serine/threonine-protein kinase PLK3 (Homo sapiens) (UniProt Q9H4B4); conditions: Compound concentration 1000.0 nM
[29] = target: Wee1-like protein kinase 2 (Homo sapiens) (UniProt P0C1S8); conditions: Compound concentration 1000.0 nM
[30] = target: cAMP-dependent protein kinase catalytic subunit beta (Homo sapiens) (UniProt P22694); conditions: Compound concentration 1000.0 nM
[31] = target: Mitogen-activated protein kinase kinase kinase kinase 4 (Homo sapiens) (UniProt O95819); conditions: Compound concentration 1000.0 nM
[32] = target: Rhodopsin kinase GRK7 (Homo sapiens) (UniProt Q8WTQ7); conditions: Compound concentration 1000.0 nM
[33] = target: Dual specificity mitogen-activated protein kinase kinase 3 (Homo sapiens) (UniProt P46734); conditions: Compound concentration 1000.0 nM
[34] = target: Mitogen-activated protein kinase 10 (Homo sapiens) (UniProt P53779); conditions: Compound concentration 1000.0 nM
[35] = tested on: Mast/stem cell growth factor receptor Kit (Homo sapiens), P10721 [D816V]; conditions: Compound concentration 1000.0 nM
[36] = target: Mast/stem cell growth factor receptor Kit (Homo sapiens) (UniProt P10721); conditions: Compound concentration 1000.0 nM
[37] = tested on: Phosphatidylinositol 4,5-bisphosphate 3-kinase catalytic subunit alpha isoform (Homo sapiens), P42336 [E542K]; conditions: Compound concentration 1000.0 nM
[38] = tested on: Epidermal growth factor receptor (Homo sapiens), P00533 [G719C]; conditions: Compound concentration 1000.0 nM
[39] = target: TRAF2 and NCK-interacting protein kinase (Homo sapiens) (UniProt Q9UKE5); conditions: Compound concentration 1000.0 nM
[40] = target: Ankyrin repeat and protein kinase domain-containing protein 1 (Homo sapiens) (UniProt Q8NFD2); conditions: Compound concentration 1000.0 nM
[41] = target: Serine/threonine-protein kinase tousled-like 1 (Homo sapiens) (UniProt Q9UKI8); conditions: Compound concentration 1000.0 nM
[42] = target: Vascular endothelial growth factor receptor 3 (Homo sapiens) (UniProt P35916); conditions: Compound concentration 1000.0 nM
[43] = target: Microtubule-associated serine/threonine-protein kinase 1 (Homo sapiens) (UniProt Q9Y2H9); conditions: Compound concentration 1000.0 nM
[44] = target: Serine/threonine-protein kinase D1 (Homo sapiens) (UniProt Q15139); conditions: Compound concentration 1000.0 nM
[45] = target: Mitogen-activated protein kinase kinase kinase 19 (Homo sapiens) (UniProt Q56UN5); conditions: Compound concentration 1000.0 nM
Sequence of Mitogen-activated protein kinase kinase kinase 19 (Homo sapiens) (Q56UN5 whole entry): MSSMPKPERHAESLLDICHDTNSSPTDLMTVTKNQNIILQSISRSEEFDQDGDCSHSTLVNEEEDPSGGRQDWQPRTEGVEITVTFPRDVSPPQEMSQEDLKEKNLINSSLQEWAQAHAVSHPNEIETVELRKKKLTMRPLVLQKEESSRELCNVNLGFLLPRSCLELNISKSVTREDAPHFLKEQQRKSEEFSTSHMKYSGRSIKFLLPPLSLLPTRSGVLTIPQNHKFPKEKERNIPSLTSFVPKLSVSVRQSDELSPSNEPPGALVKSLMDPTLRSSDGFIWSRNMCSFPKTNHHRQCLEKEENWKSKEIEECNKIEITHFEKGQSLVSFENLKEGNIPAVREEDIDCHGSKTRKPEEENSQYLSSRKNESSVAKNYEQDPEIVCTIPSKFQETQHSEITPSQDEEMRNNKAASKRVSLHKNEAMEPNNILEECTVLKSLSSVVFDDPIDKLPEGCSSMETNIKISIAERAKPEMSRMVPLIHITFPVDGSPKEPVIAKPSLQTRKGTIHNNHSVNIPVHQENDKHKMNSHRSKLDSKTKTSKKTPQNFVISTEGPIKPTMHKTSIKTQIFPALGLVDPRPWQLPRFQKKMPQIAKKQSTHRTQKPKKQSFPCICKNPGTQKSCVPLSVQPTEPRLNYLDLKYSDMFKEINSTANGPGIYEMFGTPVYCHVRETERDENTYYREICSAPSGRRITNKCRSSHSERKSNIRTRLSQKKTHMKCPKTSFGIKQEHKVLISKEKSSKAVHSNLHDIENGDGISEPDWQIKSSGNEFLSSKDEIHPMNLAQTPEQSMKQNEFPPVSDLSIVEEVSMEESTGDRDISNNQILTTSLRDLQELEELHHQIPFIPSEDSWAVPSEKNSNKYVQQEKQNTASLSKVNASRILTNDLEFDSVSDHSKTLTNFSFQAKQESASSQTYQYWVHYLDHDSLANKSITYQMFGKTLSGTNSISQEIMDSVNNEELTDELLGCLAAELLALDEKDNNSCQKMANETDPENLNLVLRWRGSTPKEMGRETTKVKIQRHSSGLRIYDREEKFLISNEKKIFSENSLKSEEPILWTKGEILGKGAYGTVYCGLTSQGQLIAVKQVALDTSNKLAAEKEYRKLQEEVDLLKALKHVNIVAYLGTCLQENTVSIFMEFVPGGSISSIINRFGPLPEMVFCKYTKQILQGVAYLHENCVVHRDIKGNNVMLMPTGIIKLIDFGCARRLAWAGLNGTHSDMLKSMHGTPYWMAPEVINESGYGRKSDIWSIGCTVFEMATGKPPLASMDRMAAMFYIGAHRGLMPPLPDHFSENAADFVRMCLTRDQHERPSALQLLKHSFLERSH

Sequence of Dual specificity testis-specific protein kinase 1 (Homo sapiens) (Q15569 whole entry, looked up): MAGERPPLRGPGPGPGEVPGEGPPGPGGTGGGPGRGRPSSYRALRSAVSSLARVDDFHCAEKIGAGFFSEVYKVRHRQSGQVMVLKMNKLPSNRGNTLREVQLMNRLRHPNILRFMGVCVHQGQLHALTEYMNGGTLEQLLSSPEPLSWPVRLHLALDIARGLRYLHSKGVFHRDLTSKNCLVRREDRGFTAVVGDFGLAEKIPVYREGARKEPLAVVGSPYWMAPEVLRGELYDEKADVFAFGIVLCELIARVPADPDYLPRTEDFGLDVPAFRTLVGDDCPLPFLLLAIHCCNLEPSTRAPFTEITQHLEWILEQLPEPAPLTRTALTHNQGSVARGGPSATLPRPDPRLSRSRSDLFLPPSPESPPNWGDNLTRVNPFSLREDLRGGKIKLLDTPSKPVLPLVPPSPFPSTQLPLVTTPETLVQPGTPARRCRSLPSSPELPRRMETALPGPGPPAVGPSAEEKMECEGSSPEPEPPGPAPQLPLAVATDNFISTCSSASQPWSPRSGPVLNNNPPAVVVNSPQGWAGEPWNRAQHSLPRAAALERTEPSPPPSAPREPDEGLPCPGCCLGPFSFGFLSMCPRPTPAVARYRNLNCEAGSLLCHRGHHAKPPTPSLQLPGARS
Sequence of Serine/threonine-protein kinase RIO3 (Homo sapiens) (O14730 whole entry): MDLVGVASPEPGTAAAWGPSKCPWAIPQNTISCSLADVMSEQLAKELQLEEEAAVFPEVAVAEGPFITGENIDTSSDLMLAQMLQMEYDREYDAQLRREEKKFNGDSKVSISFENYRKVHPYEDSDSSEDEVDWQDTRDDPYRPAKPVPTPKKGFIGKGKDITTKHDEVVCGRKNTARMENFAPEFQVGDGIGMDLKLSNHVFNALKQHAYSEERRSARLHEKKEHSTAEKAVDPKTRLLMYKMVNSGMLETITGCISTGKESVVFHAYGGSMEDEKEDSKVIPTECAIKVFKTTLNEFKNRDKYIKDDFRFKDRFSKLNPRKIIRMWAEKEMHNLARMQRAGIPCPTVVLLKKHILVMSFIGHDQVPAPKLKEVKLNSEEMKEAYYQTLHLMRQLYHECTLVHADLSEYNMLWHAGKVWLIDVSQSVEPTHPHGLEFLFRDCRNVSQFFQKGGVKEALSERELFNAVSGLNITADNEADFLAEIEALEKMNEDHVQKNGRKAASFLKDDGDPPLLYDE
Sequence of Dual specificity mitogen-activated protein kinase kinase 1 (Homo sapiens) (Q02750 whole entry): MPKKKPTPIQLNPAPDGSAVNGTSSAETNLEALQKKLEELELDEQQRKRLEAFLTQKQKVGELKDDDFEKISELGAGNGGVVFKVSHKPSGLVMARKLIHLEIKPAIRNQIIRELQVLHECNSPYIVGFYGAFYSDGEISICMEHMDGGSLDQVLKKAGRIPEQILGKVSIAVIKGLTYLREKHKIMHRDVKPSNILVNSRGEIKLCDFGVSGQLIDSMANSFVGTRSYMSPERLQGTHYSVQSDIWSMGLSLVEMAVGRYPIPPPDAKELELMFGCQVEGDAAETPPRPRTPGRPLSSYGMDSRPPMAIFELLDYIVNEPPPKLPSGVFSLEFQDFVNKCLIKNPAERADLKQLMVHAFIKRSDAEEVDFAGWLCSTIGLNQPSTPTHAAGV
Sequence of Mitogen-activated protein kinase 10 (Homo sapiens) (P53779 whole entry): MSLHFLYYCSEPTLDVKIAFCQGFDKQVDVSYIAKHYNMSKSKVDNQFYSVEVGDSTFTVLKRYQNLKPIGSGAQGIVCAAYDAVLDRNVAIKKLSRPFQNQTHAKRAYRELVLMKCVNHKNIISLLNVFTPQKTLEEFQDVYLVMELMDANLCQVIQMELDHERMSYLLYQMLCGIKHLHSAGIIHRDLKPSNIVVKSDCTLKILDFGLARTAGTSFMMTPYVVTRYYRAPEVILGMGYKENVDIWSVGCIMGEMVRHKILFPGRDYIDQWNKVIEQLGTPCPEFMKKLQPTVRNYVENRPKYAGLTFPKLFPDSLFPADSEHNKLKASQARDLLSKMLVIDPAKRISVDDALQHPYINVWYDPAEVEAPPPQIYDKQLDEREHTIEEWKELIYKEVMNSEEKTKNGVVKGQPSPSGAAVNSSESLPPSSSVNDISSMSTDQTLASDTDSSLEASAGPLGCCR
Sequence of Vascular endothelial growth factor receptor 3 (Homo sapiens) (P35916 whole entry): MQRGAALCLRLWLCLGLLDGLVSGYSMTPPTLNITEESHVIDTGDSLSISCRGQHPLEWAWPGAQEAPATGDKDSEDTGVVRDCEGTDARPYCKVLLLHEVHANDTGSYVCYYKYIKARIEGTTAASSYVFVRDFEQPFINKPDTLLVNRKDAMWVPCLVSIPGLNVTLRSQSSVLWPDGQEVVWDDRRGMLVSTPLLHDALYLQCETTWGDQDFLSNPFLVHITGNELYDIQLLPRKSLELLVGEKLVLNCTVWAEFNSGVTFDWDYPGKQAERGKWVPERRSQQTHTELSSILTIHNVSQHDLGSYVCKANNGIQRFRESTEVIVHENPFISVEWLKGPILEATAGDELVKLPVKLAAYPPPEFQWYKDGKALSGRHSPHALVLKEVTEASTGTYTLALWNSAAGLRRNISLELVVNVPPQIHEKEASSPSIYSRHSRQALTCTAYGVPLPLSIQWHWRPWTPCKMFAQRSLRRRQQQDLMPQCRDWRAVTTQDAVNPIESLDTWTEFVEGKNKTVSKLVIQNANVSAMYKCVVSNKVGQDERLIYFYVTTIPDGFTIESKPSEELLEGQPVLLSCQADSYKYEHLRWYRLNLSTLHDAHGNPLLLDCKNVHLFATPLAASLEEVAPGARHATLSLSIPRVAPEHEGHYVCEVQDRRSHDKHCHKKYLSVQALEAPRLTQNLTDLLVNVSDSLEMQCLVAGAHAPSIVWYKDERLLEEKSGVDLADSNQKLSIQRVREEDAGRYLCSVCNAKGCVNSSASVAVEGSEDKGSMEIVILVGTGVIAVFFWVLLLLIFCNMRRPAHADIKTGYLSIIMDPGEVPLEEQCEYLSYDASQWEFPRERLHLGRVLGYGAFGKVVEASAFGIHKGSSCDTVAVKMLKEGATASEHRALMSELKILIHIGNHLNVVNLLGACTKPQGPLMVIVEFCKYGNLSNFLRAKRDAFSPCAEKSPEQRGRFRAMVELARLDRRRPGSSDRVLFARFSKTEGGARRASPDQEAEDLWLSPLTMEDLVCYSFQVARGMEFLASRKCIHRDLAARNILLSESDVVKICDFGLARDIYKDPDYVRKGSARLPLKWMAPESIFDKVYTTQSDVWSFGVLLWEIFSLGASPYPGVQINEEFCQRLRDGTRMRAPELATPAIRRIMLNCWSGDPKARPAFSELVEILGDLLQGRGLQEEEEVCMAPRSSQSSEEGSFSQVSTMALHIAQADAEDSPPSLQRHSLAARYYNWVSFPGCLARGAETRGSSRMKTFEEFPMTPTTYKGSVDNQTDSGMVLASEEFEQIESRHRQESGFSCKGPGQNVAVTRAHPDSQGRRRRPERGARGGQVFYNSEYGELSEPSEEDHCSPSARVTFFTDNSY
Sequence of Dual specificity mitogen-activated protein kinase kinase 3 (Homo sapiens) (P46734 whole entry): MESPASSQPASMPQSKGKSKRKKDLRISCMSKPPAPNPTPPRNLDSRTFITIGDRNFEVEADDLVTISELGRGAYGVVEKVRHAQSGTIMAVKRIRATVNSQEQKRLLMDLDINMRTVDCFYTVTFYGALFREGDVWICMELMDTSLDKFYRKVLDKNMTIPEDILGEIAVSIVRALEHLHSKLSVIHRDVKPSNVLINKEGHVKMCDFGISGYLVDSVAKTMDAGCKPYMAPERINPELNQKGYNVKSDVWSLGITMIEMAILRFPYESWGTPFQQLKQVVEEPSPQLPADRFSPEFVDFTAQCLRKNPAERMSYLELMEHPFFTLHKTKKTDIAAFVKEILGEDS

O=C(Nc1cccnn1)N1CC(C/C=C/c2cncc(Oc3ccc(C(F)(F)F)cn3)n2)C1
inactive: residual activity [1] 100% | residual activity [2] 98% | residual activity [3] 100% | residual activity [4] 100% | residual activity [5] 80% | residual activity [6] 100% | residual activity [7] 64% | residual activity [8] 100% | residual activity [9] 100% | inhibition [10] -9.59% | residual activity [11] 84% | residual activity [12] 88% | residual activity [13] 79% | residual activity [14] 91% | residual activity [15] 75% | residual activity [16] 100% | residual activity [17] 100% | residual activity [18] 100% | residual activity [19] 68% | residual activity [20] 87% | residual activity [21] 100% | residual activity [22] 98% | residual activity [23] 100% | residual activity [24] 89% | residual activity [25] 88% | residual activity [26] 93% | residual activity [27] 100% | residual activity [28] 80% | residual activity [29] 100% | residual activity [30] 100% | residual activity [31] 100% | residual activity [32] 85% | residual activity [33] 72% | residual activity [34] 77% | residual activity [35] 100% | residual activity [36] 78% | residual activity [37] 88% | residual activity [38] 100% | residual activity [39] 92% | residual activity [40] 73% | residual activity [41] 98% | residual activity [42] 100% | residual activity [43] 58% | residual activity [44] 100% | residual activity [45] 90%

O=C(Nc1cccnn1)N1CCC(=Cc2cccc(Oc3ccc(C(F)(F)F)cn3)c2)CC1
inactive: residual activity [1] 100% | residual activity [2] 70% | residual activity [3] 100% | residual activity [4] 100% | residual activity [5] 100% | residual activity [6] 74% | residual activity [7] 92% | residual activity [8] 86% | residual activity [9] 91% | inhibition [10] 4.08% | residual activity [11] 100% | residual activity [12] 88% | residual activity [13] 100% | residual activity [14] 100% | residual activity [15] 100% | residual activity [16] 100% | residual activity [17] 88% | residual activity [18] 81% | residual activity [19] 94% | residual activity [20] 93% | residual activity [21] 79% | residual activity [22] 90% | residual activity [23] 88% | residual activity [24] 100% | residual activity [25] 100% | residual activity [26] 100% | residual activity [27] 73% | residual activity [28] 100% | residual activity [29] 77% | residual activity [30] 100% | residual activity [31] 100% | residual activity [32] 100% | residual activity [33] 100% | residual activity [34] 100% | residual activity [35] 87% | residual activity [36] 100% | residual activity [37] 65% | residual activity [38] 100% | residual activity [39] 100% | residual activity [40] 96% | residual activity [41] 100% | residual activity [42] 80% | residual activity [43] 100% | residual activity [44] 100% | residual activity [45] 85%
